This passage reports inhibition results from PubChem BioAssay AID1288 (Columbia University Molecular Screening Center, 2008).

The source made the active and inactive calls. The rule behind the calls is not given here.

The nature of the assay: inhibitors of TNFa-induced E-selectin expression, confirmation, imaging, retest plus dose response, cell count (AID 1288).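 Note: 0% = stimulated vehicle wells and 100% = unstimulated vehicle wells.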 As to conditions: human endothelial cells, TNFa-induced E-selectin, imaging; at 2 µM; active compounds read high.
`CN(C)c1ccc(NC(=S)NC(=O)/C=C/c2ccc(Cl)cc2)cc1`: the inhibition (usually the relative decrease from the control value, in per cent) is 2.61% (inactive).

Take `Cc1ccc(N)cc1S(=O)(=O)N(C)C`: the inhibition is 7.3% (inactive).

For `Cc1cc2nc(-c3ccc(SCc4ccc(C#N)cc4)nc3)[nH]c2cc1C`, the inhibition was 1.98% (inactive).

Take `C/C(=N\Nc1cccc2cccnc12)c1ccccc1O`: the inhibition was -0.47% (inactive).

In the case of `Cc1ccc(/C=C2\SC(N)=NC2=O)s1`, the inhibition was 1.87% (inactive).

In the case of `O=C(c1cccs1)N(C(=O)c1cccs1)c1ccc(Br)cn1`, the inhibition was 15.4% (inactive).

As to `O=C(c1ccccc1)N1CCN(c2ccccc2F)CC1`, the inhibition is 9.93% (inactive).

Consider `O=C(c1ccc(COCC(F)(F)F)o1)N1CCCCCC1`, for which the inhibition is 5.74% (inactive).

On to `[O-][n+]1onc2c1C(N1CCOCC1)CCC2N1CCOCC1` (stereo not drawn), for which the inhibition was 5.99% (inactive).

For `CCC(CC)C(=O)c1c[nH]c(C(=O)NCCCN2CCOCC2)c1`, the inhibition is 2.64% (inactive).

Turning to `Cc1oc2c(C)c(O)ccc2c(=O)c1-c1cnn(-c2ccccc2)c1`, the inhibition was -7.41% (inactive).

Regarding `CCOC(=O)N1CCC(NC(=O)CN2C(=O)CSc3nc(C)cc(C)c32)CC1`, the inhibition is 3.53% (inactive).

Consider `Cc1cc(C)n2nc(C(=O)N(C)C(c3ccccc3)c3ccccc3)nc2n1`, for which the inhibition was 7.77% (inactive).

Take `CCCn1nnnc1SCC(=O)N1CCOCC1`: the inhibition was 20.5% (inactive).

As to `CCOC(=O)CSc1nc2cc(OC)ccc2cc1C#N`, the inhibition is 11.6% (inactive).

Take `O=C(Cn1nnc(-c2ccc(Cl)cc2)n1)NC1CCN(Cc2ccccc2)CC1`: the inhibition was 11.8% (inactive).

As for `O=C(Nc1cc2ccccc2oc1=O)c1ccccc1`, the inhibition is 7.06% (inactive).

For the compound `Cc1ccc(C(=O)n2c(=S)nc3ccccn32)cc1`, the inhibition was 22.2% (inactive).

With `COc1ccc(Cc2nnc(SCC(=O)NC3CCCC3)o2)cc1`, the inhibition is 40.2% (inactive).

`COc1ccc(-c2n[nH]c(C(F)(F)F)c2-c2cc3ccccc3o2)c(O)c1`: the inhibition is 3.2% (inactive).

Consider `COCCOC(=O)c1c(NC(=O)CN2CCOCC2)sc(C(N)=O)c1C`, for which the inhibition was 16.3% (inactive).

With `Cc1ccc(O)c(NC(=S)NC(=O)c2ccc(-c3ccc(Cl)cc3)o2)c1`, the inhibition is 20.3% (inactive).

On to `CCCOc1ccc(C(=O)NCC(c2cccs2)N(C)C)cc1` (stereo not drawn), for which the inhibition was -0.69% (inactive).

`O=c1cc(CO)oc(C(Nc2ccccn2)c2ccccc2F)c1O` (stereo not drawn): the inhibition is 13.7% (inactive).

On to `Cc1cc([N+](=O)[O-])nn1CCCC(=O)Nc1sc2c(c1C(N)=O)CCC(C)C2` (stereo not drawn), for which the inhibition is 1.33% (inactive).

As for `CN(CC(=O)Nc1ccc(Cl)cc1)c1ccc(S(=O)(=O)N2CCCCC2)cc1[N+](=O)[O-]`, the inhibition is 7.17% (inactive).

Consider `CCN(CC)CCNC(=O)CS(=O)Cc1nc(-c2ccccc2Cl)oc1C` (stereo not drawn), for which the inhibition was 3.34% (inactive).

For `COc1cccc(N2CC(C(=O)Nc3nnc(SCC(=O)c4ccccc4)s3)CC2=O)c1` (stereo not drawn), the inhibition was 9.31% (inactive).

`COc1ccc(C(=O)NCCNC(C)=O)cc1S(=O)(=O)NCc1ccc(Cl)cc1`: the inhibition is 14.8% (inactive).

`COc1cccc(-c2cc3c(=O)n(-c4ccccc4)c(=S)[nH]c3s2)c1`: the inhibition is 24.4% (inactive).

Turning to `COc1ccc(/C(C)=N/OCC(=O)N2CC3(C)CC2CC(C)(C)C3)cc1` (stereo not drawn), the inhibition was 17.2% (inactive).

As to `Cc1ccc(C)c(NC(=O)CSc2nnc([C@@H](N)Cc3ccccc3)o2)c1`, the inhibition was 13.6% (inactive).

Turning to `Cc1nnc(SCC(=O)N(C)c2ccccc2)n1Cc1ccccc1`, the inhibition was 1.26% (inactive).

On to `CCOC(=O)N1CCN(C(=O)c2ccc(Oc3ccc([N+](=O)[O-])cc3)cc2)CC1`, for which the inhibition was 18.9% (inactive).

Turning to `COc1cccc(/C=C/C(=O)OCC(=O)Nc2ccc(Cl)c(S(=O)(=O)N(C)C)c2)c1`, the inhibition was 2.19% (inactive).

With `O=C(CSc1ncccn1)NCc1ccccc1Cl`, the inhibition is 32.9% (inactive).

Consider `O=C(/C=C/c1ccc(F)cc1)NC(=S)Nc1ccccc1C(=O)NC1CCCCC1`, for which the inhibition is 2.9% (inactive).

As for `CCc1ccc(CN(C)C(=O)c2cc(COc3c(F)cccc3F)on2)cc1`, the inhibition was 13% (inactive).

With `Cc1ccc(NC(=O)Nc2ccc3c(c2)N(C)C(=O)CS3)nc1`, the inhibition is 3.21% (inactive).

Turning to `Cc1ccc(NC(=O)c2ccc(OC(=O)CCN3C(=O)c4ccccc4C3=O)cc2)cc1`, the inhibition is 42.6% (inactive).

For the compound `COc1ccc(-c2noc(CCC(N)=O)n2)cc1OC`, the inhibition was 16.5% (inactive).

As to `Cc1ccc(N2C(=O)C3C4C=CC(CNC(=S)Nc5ccc(F)cc5)(O4)C3C2=O)cc1` (stereo not drawn), the inhibition was 5.92% (inactive).

As to `COc1ccccc1CC1(C)NC(=O)N(CC(=O)N2CC(C)OC(C)C2)C1=O` (stereo not drawn), the inhibition is 9.89% (inactive).

Regarding `CCCN1CCc2[nH]c(=S)[nH]c(=O)c2C1`, the inhibition is -2.07% (inactive).

For `CS(=O)(=O)C1=NSC2=NC(=O)/C(=C\c3cccn3-c3ccc(Cl)cc3)C(=N)N21`, the inhibition was 17.3% (inactive).

With `COCCN1CN(S(=O)(=O)c2ccccc2)c2nc3ccccc3nc21`, the inhibition was 2.89% (inactive).

`CCOc1cc(C(=O)NCCCn2ccnc2)cc(OCC)c1OCC`: the inhibition is -4.2% (inactive).

`COCCN1C(=O)N(c2cccc(C)c2)C(=O)C1CC(=O)Nc1ccc(F)cc1` (stereo not drawn): the inhibition is 12% (inactive).

In the case of `COc1ccccc1Cc1nc(-c2ccncc2)no1`, the inhibition is 13.1% (inactive).

With `COc1ccccc1CCNC(=O)c1cnccn1`, the inhibition was 16.6% (inactive).

Regarding `O=C(CN(C(=O)CCC(=O)Nc1ccccn1)c1ccc2c(c1)OCO2)NCc1ccco1`, the inhibition is 36.3% (inactive).

As to `Cc1cc(C)nc(/N=C2\NC(=O)CC(C(=O)O)N2c2ccc(Cl)cc2Cl)n1` (stereo not drawn), the inhibition is 0.87% (inactive).

With `COC(=O)Cn1cnc2c1c(=O)n(C)c(=O)n2C`, the inhibition is 6.02% (inactive).

As to `O=c1c2ccccc2n2c(-c3cccc(F)c3)nnc2n1Cc1ccccc1`, the inhibition was -8.49% (inactive).

Take `O=C(Nc1cccc(-c2cn3ccccc3n2)c1)c1cccc(Cl)c1`: the inhibition was 8.96% (inactive).

For `Cn1c(CCNC(=O)C2CCCCC2)nc2cc(NC(=O)c3cccs3)ccc21`, the inhibition was 3.87% (inactive).

For `c1ccc(Nc2nc3ccccc3n3cnnc23)cc1`, the inhibition is 6.89% (inactive).

For `CCOc1ccc(OCC)c(NC(=O)CN2CCN(c3cccc(C)c3)CC2)c1`, the inhibition is -3.01% (inactive).

Turning to `Cc1ccc(Cn2ncc3c(N4CCN(C5CCCC5)CC4)ncnc32)cc1`, the inhibition was 3.96% (inactive).

In the case of `Cc1nc2ccc(NC(=O)C3CCN(S(=O)(=O)c4cccs4)CC3)cc2s1`, the inhibition is 18.1% (inactive).

As for `COc1ccc(NC(=O)c2c(C)oc3c2CCCC3)cc1`, the inhibition was 3.37% (inactive).

For the compound `O=S1(=O)CCN(C(CCO)c2cccc(C(F)(F)F)c2)CC1` (stereo not drawn), the inhibition is 4.23% (inactive).

As to `COc1ccc(N=C2SCC(=O)N2c2ccc(OC)cc2)cc1`, the inhibition was -8.28% (inactive).
